According to patent US20260234150A1, “COMPOUND FOR INHIBITING NLRP3, PREPARATION METHOD, AND USE” (DOVETREE MEDICINES UNUS, INC., priority 2023, published 2026):
Read-outs that look alike come from different tables or passages of the source.

How the values were obtained:
[1] = Pharmacokinetic evaluation in rats; type: in vivo; settings: rat, plasma, SD male rats
Protocol: Purpose: The test animals were SD male rats. The LC-MS/MS method was used to quantitatively determine the drug concentration in the plasma of rats at different time points after intravenous injection or oral administration of the test compound to evaluate the pharmacokinetic characteristics of the test drug in rats.
SD rats (male, 160-300 g, 5-10 weeks old, Shanghai Xipu-Bikai Experimental Animal Co., Ltd.)
The clear solution of the test compound was injected into SD rats via the tail vein (without fasting) (vehicle: 5% DMSO/10% Solutol/85% Saline), and the clear solution of the test compound was administered to SD rats by gavage (fasting for 10-14 h, free access to water) (vehicle: 5% DMSO/10% Solutol/85% Saline). For intravenous administration, blood was collected from the jugular vein at 0.033, 0.083, 0.25, 0.5, 1, 2, 4, 8, and 24 hrs after administration, placed in an EDTA-K2 anticoagulant tube (Jiangsu Kangjian Medical Supplies Co., Ltd.), mixed, and centrifuged at 2-8° C., 6800 g for 6 minutes to obtain plasma; for oral gavage administration, blood was collected from the jugular vein at 0.083, 0.25, 0.5, 1, 2, 4, 6, 8, and 24 hrs after administration, placed in an EDTA-K2 anticoagulant tube (Jiangsu Kangjian Medical Supplies Co., Ltd.), mixed, and centrifuged at 2-8° C., 6800 g for 6 minutes to obtain plasma. The plasma concentration was determined by LC-MS/MS, and the relevant pharmacokinetic parameters were calculated by the non-compartmental linear logarithmic trapezoidal method using Phoenix WinNonlinTM Version 7.0 (Pharsight, USA) pharmacokinetic software. The compounds of the present disclosure have good pharmacokinetic characteristics in rats.

CYP3A4 = biological target: T1, CYP3A4 (Homo sapiens, UniProt P08684); assay: CYP450 enzyme inhibition in human liver microsomes, CYP3A4; type: in vitro ADME
T1 construct: 0.05 mg/mL liver microsome (BioIVT, IHG) phosphate buffer solution; tissue BioIVT IHG; host or cells: human liver microsomes
Protocol: This experiment incubates the compound, liver microsomes and different CYP subtype enzyme substrates in a 37° C. water bath to measure the amount of substrate metabolites produced and evaluate the inhibitory effect of the compound of the present disclosure on CYP enzymes based on the IC50 value.
i. The compound was diluted to 0, 0.02 mM, 0.06 mM, 0.2 mM, 0.6 mM, 2 mM and 6 mM concentrations with DMSO (Aladdin, catalog number: D103273-500 ml).
ii. The enzyme substrate solutions of each CYP subtype were prepared by phosphate buffer (sigma: V900050-500G).
iii. Sample incubation. […] After centrifugation at 4000 rpm and 4° C. for 40 min, the supernatant was diluted with pure water according to the response of the substrate metabolites and then detected by UPLC-MS/MS (Sciex, Q-Trap 4500). […]
The inhibitory effect of the compound on each P450 enzyme in human liver microsomes was calculated as the percentage of reduced metabolite formation compared with the non-inhibitory control (i.e., blank DMSO). The IC50 value for each P450 enzyme in human liver microsomes was calculated using the logarithm of the remaining activity and the inhibitor concentration using Graphpad Prism software. […]

[2] = biological target: T2, His6-Flag-TEV-NLRP3 (134-1036) (Homo sapiens, UniProt Q96P20); assay: NLRP3 fluorescence polarization (FP) binding assay, competition with probe NP3-301; settings: competition with NP3-301 for binding to NLRP3 (134-1036), 30 nM protein
T2 construct: fused on or other part: N-terminal His6 tag, Flag tag and TEV cleavage site
How it was run: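 Compound was preincubated 60 min at room temperature with NLRP3 protein (30 nM final) in 50 mM Hepes pH 7.4, 150 mM NaCl, 2.5 mM MgCl2, 1 mM TCEP, 100 μM ATP. Probe NP3-301 (0.5 nM final) was then added for 30 min. Fluorescence polarization was read at ex 485/em 535 nm, and IC50 was obtained by four-parameter logistic fit.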

T1 sequence (P08684 whole entry): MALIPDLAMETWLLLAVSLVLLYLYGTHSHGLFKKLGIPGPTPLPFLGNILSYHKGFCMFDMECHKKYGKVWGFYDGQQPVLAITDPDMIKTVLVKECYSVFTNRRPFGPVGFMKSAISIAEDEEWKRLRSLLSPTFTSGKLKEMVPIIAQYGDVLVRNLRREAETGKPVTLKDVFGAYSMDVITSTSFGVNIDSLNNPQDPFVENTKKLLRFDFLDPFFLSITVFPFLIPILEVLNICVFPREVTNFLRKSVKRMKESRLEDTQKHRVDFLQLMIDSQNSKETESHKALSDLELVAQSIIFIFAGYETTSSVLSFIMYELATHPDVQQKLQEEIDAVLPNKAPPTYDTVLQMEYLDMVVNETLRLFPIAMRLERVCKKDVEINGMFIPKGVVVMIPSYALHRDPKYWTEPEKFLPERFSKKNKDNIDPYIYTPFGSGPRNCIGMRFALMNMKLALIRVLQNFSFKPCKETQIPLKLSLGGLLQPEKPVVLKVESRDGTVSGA
T2 sequence (Q96P20 134-1036 limits assumed): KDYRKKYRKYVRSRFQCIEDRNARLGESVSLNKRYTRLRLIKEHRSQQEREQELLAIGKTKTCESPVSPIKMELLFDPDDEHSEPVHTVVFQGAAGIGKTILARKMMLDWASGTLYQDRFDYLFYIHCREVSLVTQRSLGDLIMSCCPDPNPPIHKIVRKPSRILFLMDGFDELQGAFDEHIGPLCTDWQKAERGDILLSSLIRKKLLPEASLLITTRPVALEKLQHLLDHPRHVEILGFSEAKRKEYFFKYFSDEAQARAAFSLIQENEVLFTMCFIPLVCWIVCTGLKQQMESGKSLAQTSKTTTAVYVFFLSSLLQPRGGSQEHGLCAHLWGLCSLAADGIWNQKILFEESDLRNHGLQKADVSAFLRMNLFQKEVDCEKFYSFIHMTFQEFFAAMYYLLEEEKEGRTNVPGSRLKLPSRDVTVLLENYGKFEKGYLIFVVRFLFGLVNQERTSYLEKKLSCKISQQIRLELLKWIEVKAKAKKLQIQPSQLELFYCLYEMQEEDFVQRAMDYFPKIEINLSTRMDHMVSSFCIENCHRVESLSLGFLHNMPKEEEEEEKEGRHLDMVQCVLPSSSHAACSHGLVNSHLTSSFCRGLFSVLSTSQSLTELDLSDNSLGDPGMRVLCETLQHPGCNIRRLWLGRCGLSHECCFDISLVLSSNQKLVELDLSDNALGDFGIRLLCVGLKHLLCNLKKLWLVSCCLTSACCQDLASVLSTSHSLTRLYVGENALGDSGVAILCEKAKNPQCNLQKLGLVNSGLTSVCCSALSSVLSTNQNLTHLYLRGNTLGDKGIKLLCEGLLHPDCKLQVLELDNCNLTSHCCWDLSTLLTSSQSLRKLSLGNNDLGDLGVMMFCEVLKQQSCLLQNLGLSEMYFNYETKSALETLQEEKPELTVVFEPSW

CC(=O)N1CCOC[C@H]1CNc1nc2nc(-c3c(C)cc(C(F)(F)F)cc3O)ccc2o1 [Compound 111]
clearance ([1]; 1 mg/kg, Dosage IV/PO 1/3 mg/kg): 5.78 mL/min/kg
Vd ([1]; 1 mg/kg, Dosage IV/PO 1/3 mg/kg, read-out: Vdss): 1.02 L/kg
Cmax ([1]; Dosage IV/PO 1/3 mg/kg): 1390 ng/mL
bioavailability ([1]; Dosage IV/PO 1/3 mg/kg): 94%
AUC(0-t) ([1]; IV 1 mg/kg, read-out: AUC0-last IV): 2880 ng·h/mL
half-life ([1]; IV 1 mg/kg, read-out: T1/2 (IV, h) (converted)): 3.36 h
AUC(0-t) ([1]; PO 3 mg/kg, read-out: AUC0-last PO): 8120 ng·h/mL
IC50 (CYP3A4; substrate Midazolam, read-out: Inhibitory activity IC50 (μM) CYP3A4-M): 28.7 µM
IC50 (CYP3A4; substrate Testosterone, read-out: Inhibitory activity IC50 (μM) CYP3A4-T): > 30 µM
IC50 [2]: ≤ 0.1 µM
